Assays:
[1] = tested on: cartilage; assay: Cartilage toluidine blue staining, comparison of TLC599 with TA and ER-TA, Study #75903-18-214
Protocol: Proteoglycan loss was evaluated by cationic dyes, toluidine blue, that staining proteoglycans.

[2] = tested on: chondrocyte; settings: compared among hydrocortisone, triamcinolone and dexamethasone; cited from earlier work

SMILES	proteoglycan loss (toluidine blue staining) ([1]; high dose 18.75 mg/knee, single IA injection, vs saline (FIG. 3))	proteoglycan loss in cartilage ([1]; single dose (FIG. 3))	effectiveness to induce chondrocyte apoptosis [2]
CC1(C)O[C@@H]2C[C@H]3[C@@H]4CCC5=CC(=O)C=C[C@]5(C)[C@@]4(F)[C@@H](O)C[C@]3(C)[C@]2(C(=O)CO)O1 [TA, triamcinolone acetonide]	significantly proteoglycan loss compared to saline	moderate proteoglycan loss	
C[C@@H]1C[C@H]2[C@@H]3CCC4=CC(=O)C=C[C@]4(C)[C@@]3(F)[C@@H](O)C[C@]2(C)[C@@]1(O)C(=O)CO [dexamethasone]			most effective
